PubChem BioAssay AID330 (DTP/NCI, 2004)
Where “and” joins values, the source holds several entries; their conditions need not be identical. Equal values may be shown once. Toxic doses and inconclusive results are not listed. How the source made its calls: active means survival T/C of 150% or more; inactive means T/C below 125% in these data.

Tested on: P388 leukemia ip, CD2F1 mice, survival T/C
Experiment: NCI In Vivo Anticancer Drug Screen. Data for tumor model P388 Leukemia (intraperitoneal) in CD2F1 (CDF1) mice
Conditions: endpoint: median survival time, higher = longer survival
Outline: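 Mice carrying the transplanted tumor received test compound or vehicle. Survival was recorded in each group, and the value is the treated-group measurement divided by that of the vehicle-treated control group.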

[1] = dose: 50.0 mg/kg/injection, schedule: Q01DX005 (ip), vehicle: Klucel (hydroxypropylcellulose) (HPC)
[2] = dose: 100.0 mg/kg/injection, schedule: Q01DX005 (ip), vehicle: Klucel (hydroxypropylcellulose) (HPC)
[3] = dose: 50.0 mg/kg/injection, schedule: Q01DX005 (ip), vehicle: saline with Tween-80
[4] = dose: 100.0 mg/kg/injection, schedule: Q01DX005 (ip), vehicle: saline with Tween-80
[5] = dose: 200.0 mg/kg/injection, schedule: Q01DX005 (ip), vehicle: saline with Tween-80
[6] = dose: 60.0 mg/kg/injection, schedule: Q01DX005 (ip), vehicle: saline with Tween-80
[7] = dose: 120.0 mg/kg/injection, schedule: Q01DX005 (ip), vehicle: saline with Tween-80
[8] = dose: 240.0 mg/kg/injection, schedule: Q01DX005 (ip), vehicle: saline with Tween-80
[9] = dose: 12.5 mg/kg/injection, schedule: Q01DX009 (ip), vehicle: saline with Tween-80
[10] = dose: 25.0 mg/kg/injection, schedule: Q01DX009 (ip), vehicle: saline with Tween-80
[11] = dose: 50.0 mg/kg/injection, schedule: Q01DX009 (ip), vehicle: saline with Tween-80
[12] = dose: 100.0 mg/kg/injection, schedule: Q01DX009 (ip), vehicle: saline with Tween-80
[13] = dose: 200.0 mg/kg/injection, schedule: Q01DX009 (ip), vehicle: saline with Tween-80

Measured: T/C

O=C1c2[nH]cnc2N(Cc2ccc(Cl)cc2)C2=NCCN12
inactive: [1] 102 % of control | [2] 100 % of control

CCc1nc(N)nc(N)c1-c1ccc(OC)c(N)c1
inactive: [3] 102 % of control and 116 % of control | [4] 112 % of control | [5] 119 % of control

Oc1cc2c(cc1C(c1ccc3c(c1)OCO3)N1CCCCC1)OCO2 (stereo unspecified)
inactive: [6] 119 % of control | [7] 118 % of control | [8] 120 % of control

COC(=O)c1cc2cccn2cn1
inactive: [9] 115 % of control | [10] 115 % of control | [11] 104 % of control | [12] 91 % of control | [13] 100 % of control

O=C(Nc1cc2cc([N+](=O)[O-])ccc2oc1=O)c1cccs1
inactive: dose: 15.0 mg/kg/injection, schedule: Q01DX005 (ip), vehicle: saline with Tween-80 99 % of control | dose: 30.0 mg/kg/injection, schedule: Q01DX005 (ip), vehicle: saline with Tween-80 90 % of control | [6] 91 % of control

C[N+]1(C)CCC(C(=O)c2ccccc2)CC1
inactive: dose: 6.25 mg/kg/injection, schedule: Q01DX005 (ip), vehicle: saline 108 % of control | dose: 12.5 mg/kg/injection, schedule: Q01DX005 (ip), vehicle: saline 96 % of control | dose: 25.0 mg/kg/injection, schedule: Q01DX005 (ip), vehicle: saline 95 % of control

COC(=O)C1c2cc3c(c(O)c2C(O)CC1(C)O)C(=O)c1c(O)cc2c(c1C3=O)OC1OC2(C)C(O)C(N(C)C)C1O (stereo unspecified)
inactive: dose: 25.0 mg/kg/injection, schedule: Q01DX010 (ip), vehicle: saline 100 % of control | dose: 50.0 mg/kg/injection, schedule: Q01DX010 (ip), vehicle: saline 90 % of control | dose: 100.0 mg/kg/injection, schedule: Q01DX010 (ip), vehicle: saline 100 % of control | dose: 200.0 mg/kg/injection, schedule: Q01DX010 (ip), vehicle: saline 100 % of control

COc1cc(C2c3cc4c(c(OC5OC(CO)C(O)C5O)c3CC3COC(=O)C32)OCO4)cc(OC)c1OC (stereo unspecified)
inactive: dose: 100.0 mg/kg/injection, schedule: Q01DX001 (ip), vehicle: Klucel (hydroxypropylcellulose) (HPC) 108 % of control | dose: 200.0 mg/kg/injection, schedule: Q01DX001 (ip), vehicle: Klucel (hydroxypropylcellulose) (HPC) 108 % of control | dose: 400.0 mg/kg/injection, schedule: Q01DX001 (ip), vehicle: Klucel (hydroxypropylcellulose) (HPC) 113 % of control

c1ccc(-c2c[s+]cs2)cc1
inactive: dose: 6.25 mg/kg/injection, schedule: Q01DX009 (ip), vehicle: distilled water + Tween-80 111 % of control | dose: 12.5 mg/kg/injection, schedule: Q01DX009 (ip), vehicle: distilled water + Tween-80 107 % of control and 114 % of control | dose: 25.0 mg/kg/injection, schedule: Q01DX009 (ip), vehicle: distilled water + Tween-80 121 % of control and 123 % of control | dose: 50.0 mg/kg/injection, schedule: Q01DX009 (ip), vehicle: distilled water + Tween-80 104 % of control | dose: 100.0 mg/kg/injection, schedule: Q01DX009 (ip), vehicle: distilled water + Tween-80 114 % of control

CCOC(=O)c1cnc2cc3c(c[nH]n3C(c3ccccc3)(c3ccccc3)c3ccccc3)cc2c1=O
inactive: [11] 94 % of control | [12] 96 % of control | [13] 97 % of control

COC(=O)C1(CC(=O)c2ccccc2)NC(=S)NC(=O)C1C#N (stereo unspecified)
inactive: [6] 103 % of control | [7] 98 % of control | [8] 98 % of control

O=C(Nc1ccc2[nH]c3ccccc3c2c1)c1ccccc1Cl
inactive: [1] 93 % of control | [2] 95 % of control | dose: 200.0 mg/kg/injection, schedule: Q01DX005 (ip), vehicle: Klucel (hydroxypropylcellulose) (HPC) 90 % of control

Cc1ccc(N2CC(=O)N3CCCC(C)N3C(=O)C2)cc1 (stereo unspecified)
inactive: [3] 99 % of control | [4] 99 % of control | [5] 99 % of control

N#CC1=C(C#N)C(=O)C(Cl)=C(Cl)C1=O
inactive: dose: 3.13 mg/kg/injection, schedule: Q01DX009 (ip), vehicle: saline 109 % of control | dose: 6.25 mg/kg/injection, schedule: Q01DX009 (ip), vehicle: saline 118 % of control | dose: 6.25 mg/kg/injection, schedule: Q04DX002 (ip), vehicle: saline 95 % of control | dose: 6.25 mg/kg/injection, schedule: Q04DX003 (ip), vehicle: saline 95 % of control | dose: 12.5 mg/kg/injection, schedule: Q01DX009 (ip), vehicle: saline 118 % of control | dose: 12.5 mg/kg/injection, schedule: Q04DX002 (ip), vehicle: saline 109 % of control | dose: 12.5 mg/kg/injection, schedule: Q04DX003 (ip), vehicle: saline 113 % of control | dose: 25.0 mg/kg/injection, schedule: Q04DX002 (ip), vehicle: saline with Tween-80 117 % of control | dose: 25.0 mg/kg/injection, schedule: Q04DX002 (ip), vehicle: saline 116 % of control | dose: 62.5 mg/kg/injection, schedule: Q01DX005 (ip), vehicle: saline 95 % of control | dose: 125.0 mg/kg/injection, schedule: Q01DX005 (ip), vehicle: saline 113 % of control | dose: 250.0 mg/kg/injection, schedule: Q01DX005 (ip), vehicle: saline 94 % of control

CCCn1c(=S)[nH]c2ccccc2c1=O
inactive: [12] 95 % of control | dose: 100.0 mg/kg/injection, schedule: Q04DX003 (ip), vehicle: saline with Tween-80 100 % of control | [13] 90 % of control | dose: 200.0 mg/kg/injection, schedule: Q04DX003 (ip), vehicle: saline with Tween-80 91 % of control | dose: 400.0 mg/kg/injection, schedule: Q01DX009 (ip), vehicle: saline with Tween-80 100 % of control | dose: 400.0 mg/kg/injection, schedule: Q04DX003 (ip), vehicle: saline with Tween-80 91 % of control

C/[N+]([O-])=C/c1ncc([N+](=O)[O-])n1CCO
inactive: dose: 50.0 mg/kg/injection, schedule: Q01DX009 (ip), vehicle: saline 102 % of control | dose: 100.0 mg/kg/injection, schedule: Q01DX009 (ip), vehicle: saline 107 % of control | dose: 200.0 mg/kg/injection, schedule: Q01DX009 (ip), vehicle: saline 98 % of control

CC1=C(C)SC(=C2SC=CS2)S1
inactive: dose: 100.0 mg/kg/injection, schedule: Q04DX002 (ip), vehicle: saline with Tween-80 102 % of control | dose: 200.0 mg/kg/injection, schedule: Q04DX002 (ip), vehicle: saline with Tween-80 92 % of control | dose: 400.0 mg/kg/injection, schedule: Q04DX002 (ip), vehicle: saline with Tween-80 95 % of control

C=C1C[C@H](O)[C@H]2C(C[Se]c3ccccc3)C(=O)O[C@@H]2[C@H]2[C@H](C)C(O)C[C@@H]12 (stereo partly specified)
inactive: [6] 91 % of control | [7] 95 % of control | [8] 98 % of control

CCCC(=O)OCC1OC(n2cnc3c(=S)nc[nH]c32)C(OC(=O)CCC)C1OC(=O)CCC (stereo unspecified)
inactive: dose: 6.25 mg/kg/injection, schedule: Q01DX009 (ip), vehicle: saline with Tween-80 116 % of control | [9] 112 % of control | [10] 112 % of control | [11] 116 % of control

O=C(COc1ccc(Cl)cc1Cl)Nc1ccc(I)cc1C(=O)O
inactive: dose: 50.0 mg/kg/injection, schedule: Q01DX009 (ip), vehicle: Klucel (hydroxypropylcellulose) (HPC) 94 % of control | dose: 100.0 mg/kg/injection, schedule: Q01DX009 (ip), vehicle: Klucel (hydroxypropylcellulose) (HPC) 92 % of control | dose: 200.0 mg/kg/injection, schedule: Q01DX009 (ip), vehicle: Klucel (hydroxypropylcellulose) (HPC) 91 % of control

Cc1ccc(OP(=O)(Oc2ccc(C)cc2)Oc2ccc(C)cc2)cc1.Cc1ccc(OP(=O)(Oc2ccc(C)cc2)Oc2ccc(C)cc2)cc1.[Cl][Ni][Cl]
inactive: dose: 12.5 mg/kg/injection, schedule: Q04DX003 (ip), vehicle: Klucel (hydroxypropylcellulose) (HPC) 102 % of control | dose: 25.0 mg/kg/injection, schedule: Q04DX003 (ip), vehicle: Klucel (hydroxypropylcellulose) (HPC) 100 % of control and 109 % of control and 114 % of control | dose: 50.0 mg/kg/injection, schedule: Q04DX003 (ip), vehicle: Klucel (hydroxypropylcellulose) (HPC) 100 % of control and 102 % of control

CCCCN(CCCC)CC(O)c1c(Cl)c2ccccc2c2ccccc12 (stereo unspecified)
inactive: [10] 100 % of control | [11] 93 % of control | [12] 100 % of control

COC(=O)C(Cl)(Cl)C1(c2ccccc2)OCC(C)(C)N1C(=O)C(Cl)Cl (stereo unspecified)
inactive: dose: 100.0 mg/kg/injection, schedule: Q01DX001 (ip), vehicle: saline with Tween-80 100 % of control | dose: 200.0 mg/kg/injection, schedule: Q01DX001 (ip), vehicle: saline with Tween-80 100 % of control | dose: 400.0 mg/kg/injection, schedule: Q01DX001 (ip), vehicle: saline with Tween-80 100 % of control
